Read-outs that look alike come from different tables or passages of the source.
How the values were obtained:
[1] = tested on: CEM cells; experiment: Cytostatic assay, CEM; assay type: cell-based; details: Homo sapiens, CCRF-CEM
Method in brief: (§1)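 Incubation of 5-7.5×10^4 cells per well with compound ran for 48–96 h (depending on the line) at 37° C; cells were then counted with a Coulter instrument.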

[2] = tested on: Molt4/C8 cells; experiment: Cytostatic assay, Molt4/C8; assay type: cell-based; details: Table 2
Method in brief: as §1

[3] = tested on: Sup T1 cells; experiment: Cytostatic assay, Sup T1; assay type: cell-based; details: Homo sapiens, Table 2, read-out: Cytostatic activity (μM) Sup T 1
Method in brief: as §1

[4] = tested on: MT-2 cells; experiment: Cytostatic assay, MT-2; assay type: cell-based; details: Homo sapiens, MT2; Table 2
Method in brief: as §1

[5] = tested on: C8166 cells; experiment: Cytostatic assay, C8166; assay type: cell-based; details: Homo sapiens, Table 2
Method in brief: as §1

[6] = tested on: HUT-78 cells; experiment: Cytostatic assay, HUT-78; assay type: cell-based; details: Homo sapiens, HuT78; Table 2
Method in brief: as §1

[7] = tested on: MT-4 cells; experiment: Cytostatic assay, MT-4; assay type: cell-based; details: Homo sapiens, MT4; Table 2
Method in brief: as §1

[8] = tested on: HL60, human leukemia cells; experiment: Cytostatic assay, HL-60; assay type: cell-based; details: Table 2
Method in brief: as §1

[9] = tested on: U937, human monocytic cells; experiment: Cytostatic assay, U937; assay type: cell-based; details: U-937, Table 2
Method in brief: as §1

[10] = tested on: THP-1, human monocytic cells; experiment: Cytostatic assay, THP-1; assay type: cell-based; details: Table 2
Method in brief: as §1

[11] = tested on: Raji, human B-lymphoma cells; experiment: Cytostatic assay, Raji; assay type: cell-based; details: Table 2
Method in brief: as §1

[12] = tested on: Daudi, human B-lymphoma cells; experiment: Cytostatic assay, Daudi; assay type: cell-based; details: Table 2
Protocol: (§2) To each well of a 96-well microtiter plate were added 5-7.5×10^4 cells and a given amount of the test compound. The cells were allowed to proliferate for 48 h to 96 h (depending on the nature of the cell line) at 37° C. in a humidified CO2-controlled atmosphere. At the end of the incubation period, the cells were counted in a Coulter Counter (Coulter Electronics Ltd, Harpenden Herts, United Kingdom).

[13] = tested on: L1210 cells; experiment: Cytostatic assay, L1210; assay type: cell-based; details: Mus musculus, Table 2
Method in brief: as §1

[14] = tested on: HOS CD4+ osteosarcoma cells; experiment: Cytostatic assay, HOS CD4+; assay type: cell-based; details: Homo sapiens; Table 3
Protocol: as §2

[15] = tested on: OST TK- osteosarcoma cells; experiment: Cytostatic assay, OST TK-; assay type: cell-based; details: Homo sapiens; Table 3
Method in brief: as §1

[16] = tested on: MCF-7 mammary carcinoma cells; experiment: Cytostatic assay, MCF-7; assay type: cell-based; details: Homo sapiens, MCF7; Table 3
Method in brief: as §1

[17] = tested on: FM3A mammary carcinoma cells; experiment: Cytostatic assay, FM3A; assay type: cell-based, murine; details: Mus musculus, Table 3
Method in brief: as §1

[18] = tested on: HeLa cervix carcinoma cells; experiment: Cytostatic assay, HeLa; assay type: cell-based, human; details: Homo sapiens; Table 3; read-out: Cytostatic activity (μM) Hela
Method in brief: as §1

[19] = tested on: Caki-1 kidney carcinoma cells; experiment: Cytostatic assay, Caki-1; assay type: cell-based; details: Homo sapiens, Table 3
Method in brief: as §1

[20] = tested on: Caki-2 kidney carcinoma cells; experiment: Cytostatic assay, Caki-2; assay type: cell-based; details: Homo sapiens, Table 3
Method in brief: as §1

[21] = tested on: 293T embryonic kidney cells; experiment: Cytostatic assay, 293T; assay type: cell-based; details: Homo sapiens, HEK-293T; Table 3
Method in brief: as §1

[22] = tested on: HT29 colorectal carcinoma cells; experiment: Cytostatic assay, HT29; assay type: cell-based; details: Homo sapiens, HT-29; Table 3
Method in brief: as §1

[23] = tested on: U87 glioma cells; experiment: Cytostatic assay, U87; assay type: cell-based; details: Homo sapiens, U-87 MG; Table 3
Method in brief: as §1

[24] = tested on: U87 CD4+/CXCR4+/CCR5+ glioma cells; experiment: Cytostatic assay, U87 CD4+/CXCR4+/CCR5+; assay type: cell-based; details: Homo sapiens, Glioma cell; Table 3
Protocol: as §2

[25] = tested on: HEL embryonic lung fibroblast cells; experiment: Cytostatic assay, HEL; assay type: cell-based; details: Homo sapiens, Table 3
Method in brief: as §1

[26] = tested on: BAEC aortic endothelial cells; experiment: Cytostatic assay, BAEC; assay type: cell-based, bovine; details: Bos taurus, Table 3
Method in brief: as §1

[27] = tested on: PC3 (rega) prostate cancer cells; experiment: Cytostatic assay, PC3 (rega); assay type: cell-based; details: Table 4
Method in brief: as §1

[28] = tested on: BPH-1 (UZ); experiment: Cytostatic assay, BPH-1 (UZ); assay type: cell-based; details: Homo sapiens, Table 4
Method in brief: as §1

[29] = tested on: DU145 (UZ) prostate cancer cells; experiment: Cytostatic assay, DU145 (UZ); assay type: cell-based; details: Homo sapiens, DU-145; Table 4
Method in brief: as §1

[30] = tested on: PC-3 (UZ) prostate cancer cells; experiment: Cytostatic assay, PC-3 (UZ); assay type: cell-based; details: Table 4
Method in brief: as §1

[31] = tested on: LNCaP (UZ) prostate cancer cells; experiment: Cytostatic assay, LNCaP (UZ); assay type: cell-based; details: Homo sapiens, Table 4
Method in brief: as §1

[32] = tested on: PNT1A (UZ) prostate cells; experiment: Cytostatic assay, PNT1A (UZ); assay type: cell-based; details: Homo sapiens, Table 4
Method in brief: as §1

[33] = tested on: 22Rv1 (UZ) prostate cancer cells; experiment: Cytostatic assay, 22Rv1 (UZ); assay type: cell-based; details: Homo sapiens, Table 4
Method in brief: as §1

[34] = tested on: PLC/PRF/5 hepatoma cells; experiment: Cytostatic assay, PLC/PRF/5; assay type: cell-based; details: Homo sapiens, Table 4
Method in brief: as §1

[35] = tested on: HepG2C3A hepatoma cells; experiment: Cytostatic assay, HepG2C3A; assay type: cell-based; details: Homo sapiens, HepG2/C3A; Table 4
Method in brief: as §1

[36] = tested on: Huh-7 hepatoma cells; experiment: Cytostatic assay, Huh-7; assay type: cell-based; details: Homo sapiens, Table 4
Method in brief: as §1

[37] = tested on: DNA synthesis in CEM cells; experiment: Antimetabolic activity assay, [CH3-3H]dThd incorporation (DNA synthesis), CEM; assay type: cell-based; details: Homo sapiens, CCRF-CEM, incorporation into TCA-insoluble material
Method in brief: (§3)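 Each well held 10^5 CEM cells, 1 μCi of one labelled precursor and compound over a 5-fold dilution range. Following a 20 hrs incubation at 37° C, acid-insoluble radioactivity retained on glass fiber filters was determined.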

[38] = tested on: DNA synthesis in Raji cells; experiment: Antimetabolic activity assay, [CH3-3H]dThd incorporation (DNA synthesis), Raji; assay type: cell-based; details: Homo sapiens, incorporation into TCA-insoluble material
[39] = tested on: RNA synthesis in CEM cells; experiment: Antimetabolic activity assay, [5-3H]uridine incorporation (RNA synthesis), CEM; assay type: cell-based; details: Homo sapiens, CCRF-CEM, incorporation into TCA-insoluble material
Method in brief: as §3

[40] = tested on: RNA synthesis in Raji cells; experiment: Antimetabolic activity assay, [5-3H]uridine incorporation (RNA synthesis), Raji; assay type: cell-based; details: Homo sapiens, incorporation into TCA-insoluble material
[41] = tested on: protein synthesis in CEM cells; experiment: Antimetabolic activity assay, [4,5-3H]leucine incorporation (protein synthesis), CEM; assay type: cell-based; details: Homo sapiens, CCRF-CEM, incorporation into TCA-insoluble material
Method in brief: as §3

[42] = tested on: protein synthesis in Raji cells; experiment: Antimetabolic activity assay, [4,5-3H]leucine incorporation (protein synthesis), Raji; assay type: cell-based; details: Homo sapiens, incorporation into TCA-insoluble material
[43] = tested on: broad variety of tumor cell lines; experiment: Cytostatic assays, summary over the panel of cell lines (Tables 2-4); assay type: cell-based
Method in brief: as §1

Which results are given for `COC(=O)c1cc(CCc2ccsc2)sc1N` [TR595, 2-Amino-5-(2-thiophen-3-yl-ethyl)-thiophene-3-carboxylic acid methyl ester]?
IC50 ([1]; Table 1a, read-out: IC50 μM (CEM)): 1.7 µM; IC50 ([1]; Table 2, read-out: Cytostatic activity (μM) CEM): 1.7 ± 1.1 µM; IC50 [2]: 0.56 ± 0.57 µM; IC50 [3]: 1.3 ± 0.21 µM; IC50 [4]: 0.57 ± 0.078 µM; IC50 [5]: 2.2 ± 0.35 µM; IC50 [6]: 38 ± 8.5 µM; IC50 [7]: 30 ± 4.9 µM; IC50 [8]: 6.1 ± 8.6 µM; IC50 [9]: 42 ± 3.5 µM; IC50 [10]: 41 ± 2.8 µM; IC50 [11]: 46 ± 1.4 µM; IC50 [12]: 37 ± 3.5 µM; IC50 [13]: 41 ± 2 µM; IC50 [14]: 50 ± 12 µM; IC50 [15]: 8.2 ± 6.9 µM; IC50 [16]: 25 ± 11 µM; IC50 [17]: 50 ± 2.8 µM; IC50 [18]: 36 ± 7 µM; IC50 [19]: 2.3 ± 0.14 µM; IC50 [20]: 45 ± 7.1 µM; IC50 [21]: 44 ± 5.7 µM; IC50 [22]: 30 ± 5.7 µM; IC50 [23]: 51 ± 2.1 µM; IC50 [24]: 51 ± 4.9 µM; IC50 [25]: 30 ± 13 µM; IC50 [26]: 27 ± 7.1 µM; IC50 [27]: 0.25 ± 0.27 µM; IC50 [28]: 46 ± 4.9 µM; IC50 [29]: 15 ± 8.5 µM; IC50 [30]: 0.6 ± 0.071 µM; IC50 [31]: 0.38 ± 0.1 µM; IC50 [32]: 40 ± 7.1 µM; IC50 [33]: 22 ± 9.2 µM; IC50 [34]: 28 ± 2.8 µM; IC50 [35]: 8.1 ± 0.71 µM; IC50 [36]: 1.3 ± 0.28 µM; IC50 [37]: 3.2 ± 1.2 µM; IC50 [38]: 39 ± 33 µM; IC50 [39]: 1.9 ± 0.7 µM; IC50 [40]: 27 ± 14 µM; IC50 [41]: 0.66 ± 0.13 µM; IC50 [42]: 43 ± 7 µM; IC50 ([43]; Homo sapiens, HuT78, range for the seven compounds, MT-4 and HUT-78 cells, read-out: IC50 range, cytostatic activity against MT-4 and HUT-78 cells): 8.5 to 60 µM; IC50 ([43]; range for the seven compounds against the 5 tumor cell lines, read-out: IC50 range, cytostatic activity against CEM, Molt4/C8, Sup T1, MT-2 and C8166 cells): 0.22 to 3.4 µM
